target: human TrkA (Homo sapiens (Human), UniProt P04629); test: Human TrkA inhibition assay (Test Example 2); type: biochemical; details: Table 155, human TrkA inhibition; read-out: IC50
Procedure, shortened: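 Mobility-shift readout of phosphorylated versus unphosphorylated fluorescent peptide gave conversion ratio, normalized to DMSO and no-enzyme wells; IC50 by logistic fit of 10- or 15-point 3-fold dilutions. Conditions: 1 nmol/L enzyme, 15 min compound preincubation, then 500 μmol/L ATP plus 1.5 μmol/L peptide, 120 min, 37 °C.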

Chain of human TrkA (P04629 440-796): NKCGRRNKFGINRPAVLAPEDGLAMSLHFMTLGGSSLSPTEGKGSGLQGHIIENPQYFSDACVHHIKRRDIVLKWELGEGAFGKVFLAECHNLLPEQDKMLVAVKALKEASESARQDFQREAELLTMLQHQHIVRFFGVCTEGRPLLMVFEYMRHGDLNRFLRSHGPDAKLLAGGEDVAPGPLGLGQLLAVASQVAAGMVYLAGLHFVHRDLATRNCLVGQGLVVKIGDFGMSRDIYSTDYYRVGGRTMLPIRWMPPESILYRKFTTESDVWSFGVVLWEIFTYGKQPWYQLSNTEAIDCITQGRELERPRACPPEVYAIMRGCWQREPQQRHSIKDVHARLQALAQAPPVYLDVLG

IC50	Compound
100 to 1000 nM	CNC(=O)c1cc(-c2nn(-c3ccccc3)c(NC(=O)N[C@@H]3CNO[C@H]3c3ccc(F)c(F)c3)c2C)cnc1OC (racemic) [Compound I-474]
< 100 nM	COCCN1C[C@@H](NC(=O)Nc2c(C)c(-c3cnc(-c4cnoc4)nc3)nn2-c2ccccc2)[C@H](c2ccnc(F)c2)O1 (racemic) [Compound I-476]
< 100 nM	COCCN1C[C@@H](NC(=O)Nc2c(C)c(-c3cnc(OC(C)C)nc3)nn2-c2ccccc2)[C@H](c2ccnc(F)c2)O1 (racemic) [Compound I-477]
< 100 nM	COCCN1C[C@@H](NC(=O)Nc2c(C)c(-c3cnc(OC(CF)CF)nc3)nn2-c2ccccc2)[C@H](c2ccnc(F)c2)O1 (racemic) [Compound I-478]
< 100 nM	COCCN1C[C@@H](NC(=O)Nc2c(C)c(-c3cnc(N4CC(C)(O)C4)nc3)nn2-c2ccccc2)[C@H](c2ccnc(F)c2)O1 (racemic) [Compound I-479]
< 100 nM	COCCN1C[C@@H](NC(=O)Nc2c(C)c(-c3cnc(N4CC(F)C4)nc3)nn2-c2ccccc2)[C@H](c2ccnc(F)c2)O1 (racemic) [Compound I-480]
< 100 nM	COCCN1C[C@@H](NC(=O)Nc2c(C)c(-c3cnc(N4CC(F)(F)C4)nc3)nn2-c2ccccc2)[C@H](c2ccnc(F)c2)O1 (racemic) [Compound I-481]
< 100 nM	COCCN1C[C@@H](NC(=O)Nc2c(C)c(-c3cnc(N4CCC5(COC5)C4)nc3)nn2-c2ccccc2)[C@H](c2ccnc(F)c2)O1 (racemic) [Compound I-482]
< 100 nM	COCCN1C[C@@H](NC(=O)Nc2c(C)c(-c3cnc(N4CC5(CCOC5)C4)nc3)nn2-c2ccccc2)[C@H](c2ccnc(F)c2)O1 (racemic) [Compound I-483]
< 100 nM	COCCN1C[C@@H](NC(=O)Nc2c(C)c(-c3cnc(N4CCC5(CC4)COC5)nc3)nn2-c2ccccc2)[C@H](c2ccnc(F)c2)O1 (racemic) [Compound I-484]
< 100 nM	COCCN1C[C@@H](NC(=O)Nc2c(C)c(-c3cnc(N4CC5(CCC5)C4)nc3)nn2-c2ccccc2)[C@H](c2ccnc(F)c2)O1 (racemic) [Compound I-485]
< 100 nM	COCCN1C[C@@H](NC(=O)Nc2c(C)c(-c3cnc(N4C[C@H]5CC[C@@H](C4)O5)nc3)nn2-c2ccccc2)[C@H](c2ccnc(F)c2)O1 (racemic) [Compound I-486]
< 100 nM	COCCN1C[C@@H](NC(=O)Nc2c(C)c(-c3cnc(N4CCN(C)C(=O)C4)nc3)nn2-c2ccccc2)[C@H](c2ccnc(F)c2)O1 (racemic) [Compound I-488]
< 100 nM	COCCN1C[C@@H](NC(=O)Nc2c(C)c(-c3cnc(N4CC(OC)C4)nc3)nn2-c2ccccc2)[C@H](c2ccnc(F)c2)O1 (racemic) [Compound I-489]
< 100 nM	COCCN1C[C@@H](NC(=O)Nc2c(C)c(-c3cnc4c(c3)c(N3CCN(C)CC3)nn4C)nn2-c2ccccc2)[C@H](c2ccnc(F)c2)O1 (racemic) [Compound I-490]
< 100 nM	COCCN1C[C@@H](NC(=O)Nc2c(C)c(-c3cnc4c(c3)c(N3CCCC3)nn4C)nn2-c2ccccc2)[C@H](c2ccnc(F)c2)O1 (racemic) [Compound I-491]
< 100 nM	COCCN1C[C@@H](NC(=O)Nc2c(C)c(-c3ccn(C)c(=O)c3)nn2-c2ccccc2)[C@H](c2ccnc(F)c2)O1 (racemic) [Compound I-495]
< 100 nM	COCCN1C[C@@H](NC(=O)Nc2c(C)c(-c3ccc(=O)n(C)c3)nn2-c2ccccc2)[C@H](c2ccnc(F)c2)O1 (racemic) [Compound I-496]
< 100 nM	COCCN1C[C@@H](NC(=O)Nc2c(C)c(OCc3cc(OC)ccn3)nn2-c2ccccc2)[C@H](c2ccnc(F)c2)O1 (racemic) [Compound I-501]
< 100 nM	COCCN1C[C@@H](NC(=O)Nc2c(C)c(OCC3CC3)nn2-c2ccccc2)[C@H](c2ccnc(F)c2)O1 (racemic) [Compound I-502]
< 100 nM	COCCN1C[C@@H](NC(=O)Nc2c(C)c(OCC3COC3)nn2-c2ccccc2)[C@H](c2ccnc(F)c2)O1 (racemic) [Compound I-503]
< 100 nM	COCCN1C[C@@H](NC(=O)Nc2c(C)c(-c3cnc(N4CCNOCC4)nc3)nn2-c2ccccc2)[C@H](c2ccnc(F)c2)O1 (racemic) [Compound I-507]
< 100 nM	COCCOc1ncc(-c2nn(-c3ccccc3)c(NC(=O)N[C@@H]3CN(CCOC)O[C@H]3c3ccnc(F)c3)c2C)cn1 (racemic) [Compound I-511]
< 100 nM	COCCN1C[C@@H](NC(=O)Nc2c(C)c(-c3cnc(C4CCOCC4)nc3)nn2-c2ccccc2)[C@H](c2ccnc(F)c2)O1 (racemic) [Compound I-513]

Compound	IC50
COCCN1C[C@@H](NC(=O)Nc2c(C)c(-c3cnc(N4C[C@H]5C[C@@H](C4)O5)nc3)nn2-c2ccccc2)[C@H](c2ccnc(F)c2)O1 (racemic) [Compound I-487]	< 100 nM

same assay, conditions: Table 156, human TrkA inhibition; read-out: IC50

Compound	IC50
COCCN1C[C@@H](NC(=O)Nc2c(C)c(-c3cnnc(OC)c3)nn2-c2ccccc2)[C@H](c2ccnc(F)c2)O1 (racemic) [Compound I-515]	< 100 nM
COCCN1C[C@@H](NC(=O)Nc2c(C)c(-c3cnc4occc4c3)nn2-c2ccccc2)[C@H](c2ccnc(F)c2)O1 (racemic) [Compound I-517]	< 100 nM
COCCN1C[C@@H](NC(=O)Nc2c(C)c(C)nn2-c2ccccc2)[C@H](c2ccnc(F)c2)O1 (racemic) [Compound I-522]	< 100 nM
CCOc1nn(-c2ccccc2)c(NC(=O)N[C@@H]2CN(CCOC)O[C@H]2c2ccnc(F)c2)c1C (racemic) [Compound I-523]	< 100 nM
COCCN1C[C@@H](NC(=O)Nc2c(C)c(-c3cnc(NCC(F)(F)F)nc3)nn2-c2ccccc2)[C@H](c2ccnc(F)c2)O1 (racemic) [Compound I-524]	< 100 nM
COc1ncc(-c2nn(-c3ccccc3)c(NC(=O)N[C@@H]3CN(CCF)O[C@H]3c3ccc(F)c(F)c3)c2C)cn1 (racemic) [Compound I-525]	< 100 nM
COc1ncc(-c2nn(-c3ccccc3)c(NC(=O)N[C@@H]3CN(C(C)C)O[C@H]3c3ccc(F)c(F)c3)c2C)cn1 (racemic) [Compound I-527]	< 100 nM
COCCN1C[C@@H](NC(=O)Nc2c(C)c(-c3cnc(CN(C)C)nc3)nn2-c2ccccc2)[C@H](c2ccc(F)c(F)c2)O1 (racemic) [Compound I-528]	< 100 nM
COCCN1C[C@@H](NC(=O)Nc2c(C)c(-c3ccnc(C)c3)nn2-c2ccccc2)[C@H](c2ccnc(F)c2)O1 (racemic) [Compound I-529]	< 100 nM
COCCN1C[C@@H](NC(=O)Nc2c(C)c(-c3cnc4c(c3)CCO4)nn2-c2ccccc2)[C@H](c2ccnc(F)c2)O1 (racemic) [Compound I-530]	< 100 nM
COCCN1C[C@@H](NC(=O)Nc2c(C)c(-c3cnc(N4CCC(N(C)C)CC4)nc3)nn2-c2ccccc2)[C@H](c2ccnc(F)c2)O1 (racemic) [Compound I-532]	< 100 nM

Next, values leading:

IC50	Compound
< 100 nM	COCCN1C[C@@H](NC(=O)Nc2c(C)c(C(F)(F)F)nn2-c2ccccc2)[C@H](c2ccnc(F)c2)O1 (racemic) [Compound I-534]
< 100 nM	CCN1C[C@@H](NC(=O)Nc2c(C)c(-c3cnc4c(c3)oc(=O)n4C)nn2-c2ccccc2)[C@H](c2ccc(F)c(F)c2)O1 (racemic) [Compound I-539]
< 100 nM	CCN1C[C@@H](NC(=O)Nc2c(C)c(-c3cnc(N4CCN(C)CC4)nc3)nn2-c2ccccc2)[C@H](c2ccc(F)c(F)c2)O1 (racemic) [Compound I-540]
< 100 nM	CCOc1nn(-c2ccccc2)c(NC(=O)N[C@@H]2CN(CC)O[C@H]2c2ccc(F)cc2)c1C (racemic) [Compound I-541]
< 100 nM	CCOc1nn(-c2ccccc2)c(NC(=O)N[C@@H]2CN(CC)O[C@H]2c2ccc(F)c(F)c2)c1C (racemic) [Compound I-542]
< 100 nM	CCN1C[C@@H](NC(=O)Nc2c(C)c(-c3ccn(C)c(=O)c3)nn2-c2ccccc2)[C@H](c2ccc(F)c(F)c2)O1 (racemic) [Compound I-543]
< 100 nM	CCN1C[C@@H](NC(=O)Nc2c(C)c(-c3cnc(OC)c(C(=O)NC4CCOCC4)c3)nn2-c2ccccc2)[C@H](c2ccc(F)c(F)c2)O1 (racemic) [Compound I-545]
< 100 nM	CNC(=O)c1cc(-c2nn(-c3ccccc3)c(NC(=O)N[C@@H]3CN(CCF)O[C@H]3c3ccc(F)c(F)c3)c2C)cnc1OC (racemic) [Compound I-550]
< 100 nM	CNC(=O)c1cc(-c2nn(-c3ccccc3)c(NC(=O)N[C@@H]3CN(CC(F)F)O[C@H]3c3ccc(F)c(F)c3)c2C)cnc1OC (racemic) [Compound I-551]
< 100 nM	COCCN1C[C@@H](NC(=O)Nc2c(C)c(-c3ccc(OC)cc3)nn2-c2ccccc2)[C@H](c2ccnc(F)c2)O1 (racemic) [Compound I-554]
< 100 nM	CCN1C[C@@H](NC(=O)Nc2c(C)c(OCC3CCNCC3)nn2-c2ccccc2)[C@H](c2ccc(F)c(F)c2)O1 (racemic) [Compound I-559]
< 100 nM	Cc1c(OCC2CCNCC2)nn(-c2ccccc2)c1NC(=O)N[C@@H]1CN(CCF)O[C@H]1c1ccc(F)c(F)c1 (racemic) [Compound I-560]
< 100 nM	Cc1c(OCC2CCNCC2)nn(-c2ccccc2)c1NC(=O)N[C@@H]1CN(CC(F)F)O[C@H]1c1ccc(F)c(F)c1 (racemic) [Compound I-561]
< 100 nM	CCN1C[C@@H](NC(=O)Nc2c(C)c(OCC3CCNCC3)nn2-c2ccccc2)[C@H](c2ccc(F)cc2)O1 (racemic) [Compound I-562]
< 100 nM	CCN1C[C@@H](NC(=O)Nc2c(C)c(OCC3CCN(C(C)=O)CC3)nn2-c2ccccc2)[C@H](c2ccc(F)c(F)c2)O1 (racemic) [Compound I-563]
< 100 nM	CC(=O)N1CCC(COc2nn(-c3ccccc3)c(NC(=O)N[C@@H]3CN(CCF)O[C@H]3c3ccc(F)c(F)c3)c2C)CC1 (racemic) [Compound I-564]

same assay, conditions: human TrkA 1 nmol/L, ATP 500 μmol/L, 120 min at 37° C.; read-out: IC50 values (TrkA phosphorylation inhibition)

IC50	Compound
22 nM	COc1ncc(-c2nn(-c3ccccc3)c(NC(=O)N[C@@H]3CN(CC(F)F)O[C@H]3c3ccc(F)c(F)c3)c2C)cn1 (racemic) [Compound I-526]

From patent publication US10640495B2, “Heterocycle derivatives having TrkA inhibitory activity” (Shionogi & Co., Ltd., priority 2015, dated 2020)
